21 compounds from patent US11312727B1, “Macrocyclic flu endonuclease inhibitors” (Janssen BioPharma, Inc., priority 2018, dated 2022) can be followed below.

The subject of data set [1] is Influenza strain A549 A/WSN/33 (H1N1). In words: microbe, parasite or virus in culture. Type of data set: cell-based. To be noted: Influenza A virus, A549, 20 h, A549 cells, influenza A/WSN/33 (H1N1), 20 hours incubation; read-out: A549_A(H1N1) EC50.
A short description of data set [2]: in vitro. To be noted: human, CC50, uninfected A549 cells, CellTiter-Glo. (Cellular ATP, detected with luciferase, serves as a proxy for viable cell number.)

As a reminder, the EC50 is the concentration needed to bring the measured effect to its halfway point. As a reminder, the CC50 is the concentration at which the toxic effect on the cells reaches its halfway point. The low end stands for greater toxicity to the cells, the high end for lower toxicity to the cells. For `O=C1c2c(O)c(=O)ccn2N2CN1C/C=C\CCc1ccccc1[C@H]2c1ccccc1` (single isomer, unassigned) [Compound 21A, (17*R,*Z)-4-hydroxy-16-phenyl-7,10,11,16-tetrahydro-6,17-methanobenzo[k]pyrido[1,2-b][1,2,5]triazacyclotridecine-3,5-dione], in data set [1], the EC50 worked out at 5 nM. Moreover, in data set [2], the CC50 is over 1000 nM.

As to `O=C1c2c(O)c(=O)ccn2N2CN1C/C=C\CCc1ccccc1[C@@H]2c1ccccc1` (single isomer, unassigned) [Compound 21B, (17*S,*Z)-4-hydroxy-16-phenyl-7,10,11,16-tetrahydro-6,17-methanobenzo[k]pyrido[1,2-b][1,2,5]triazacyclotridecine-3,5-dione], in data set [1], the EC50 was found to be 815 nM. This compound returned a CC50 in data set [2] of over 1000 nM.

`O=C1c2c(O)c(=O)ccn2N2CN1C/C=C\COc1ccc(F)cc1[C@H]2c1ccccc1` (single isomer, unassigned) [Compound 22A, (18*R,Z)-2-fluoro-12-hydroxy-18-phenyl-6,9-dihydro-18H-10,17-methanobenzo[b]pyrido[1,2-f][1]oxa[5,6,9]triazacyclotridecine-11,13-dione]: in data set [1], the EC50 was 9540 nM. The compound also yielded a CC50 in data set [2] of over 1000 nM.

With `O=C1c2c(O)c(=O)ccn2N2CN1C/C=C\COc1ccc(F)cc1[C@@H]2c1ccccc1` (single isomer, unassigned) [Compound 22B, (18*S,Z)-2-fluoro-12-hydroxy-18-phenyl-6,9-dihydro-18H-10,17-methanobenzo[b]pyrido[1,2-f][1]oxa[5,6,9]triazacyclotridecine-11,13-dione], in data set [1], the EC50 is 12 nM. Also, the CC50 in data set [2] is over 1000 nM.

In the case of `O=C1c2c(O)c(=O)ccn2N2CN1CCCCCc1ncccc1[C@H]2c1ccccc1` (single isomer, unassigned) [Compound 23A, (18*R)-12-hydroxy-18-phenyl-5,6,7,8,9,18-hexahydro-10,17-methanodipyrido[1,2-b:2′,3′-k][1,2,5]triazacyclotridecine-11,13-dione], the EC50 in data set [1] came out at 55000 nM. For the same compound, the CC50 in data set [2] is over 10000 nM.

Take `O=C1c2c(O)c(=O)ccn2N2CN1CCCCCc1ncccc1[C@@H]2c1ccccc1` (single isomer, unassigned) [Compound 23B, (18*S)-12-hydroxy-18-phenyl-5,6,7,8,9,18-hexahydro-10,17-methanodipyrido[1,2-b:2′,3′-k][1,2,5]triazacyclotridecine-11,13-dione]: in data set [1], the EC50 came out at 12200 nM. The compound further had a 50% cytotoxic concentration (CC50) in data set [2] of over 1000 nM.

Take `O=C1c2c(O)c(=O)ccn2N2CN1C/C=C\CCc1ncccc1[C@H]2c1ccccc1` (single isomer, unassigned) [Compound 24A, (18*R,*Z)-12-hydroxy-18-phenyl-5,6,9,18-tetrahydro-10,17-methanodipyrido[1,2-b:2′,3′-k][1,2,5]triazacyclotridecine-11,13-dione]: the EC50 in data set [1] is 39600 nM. For the same compound, the CC50 in data set [2] is over 10000 nM.

Take `O=C1c2c(O)c(=O)ccn2N2CN1C/C=C\CCc1ncccc1[C@@H]2c1ccccc1` (single isomer, unassigned) [Compound 24B, (18*S,*Z)-12-hydroxy-18-phenyl-5,6,9,18-tetrahydro-10,17-methanodipyrido[1,2-b:2′,3′-k][1,2,5]triazacyclotridecine-11,13-dione]: the EC50 in data set [1] was 1530 nM. The compound also yielded a CC50 in data set [2] of over 1000 nM.

As to `O=C1c2c(O)c(=O)ccn2N2CN1C/C=C\COc1ccc(F)cc1[C@H]2c1cccc(F)c1` (single isomer, unassigned) [Compound 25A, (18*R,Z)-2-fluoro-18-(3-fluorophenyl)-12-hydroxy-6,9-dihydro-18H-10,17-methanobenzo[b]pyrido[1,2-f][1]oxa[5,6,9]triazacyclotridecine-11,13-dione], the EC50 in data set [1] is 9800 nM. For the same compound, the CC50 in data set [2] is over 2000 nM.

With `CC[C@@H]1/C=C/COc2c(ccc(Cl)c2F)[C@@H](c2ccccc2)N2CN1C(=O)c1c(O)c(=O)ccn12` (single isomer, unassigned) [Compound 170BB, (9*R,18*R,E)-3-chloro-9-ethyl-4-fluoro-12-hydroxy-18-phenyl-6,9-dihydro-18H-10,17-methanobenzo[b]pyrido[1,2-f][1]oxa[5,6,9]triazacyclotridecine-11,13-dione], in data set [1], the EC50 was determined as 2 nM.

Regarding `CC[C@H]1/C=C/COc2c(ccc(F)c2Cl)[C@@H](c2ccccc2)N2CN1C(=O)c1c(O)c(=O)ccn12` (single isomer, unassigned) [Compound 173BA, (9*S,18*R,*E)-4-chloro-9-ethyl-3-fluoro-12-hydroxy-18-phenyl-6,9-dihydro-18H-10,17-methanobenzo[b]pyrido[1,2-f][1]oxa[5,6,9]triazacyclotridecine-11,13-dione], in data set [1], the EC50 amounted to 26 nM.

For the compound `Cc1ccccc1[C@H]1c2ccc(F)c(F)c2OC/C=C/C2(CCC2)N2CN1n1ccc(=O)c(O)c1C2=O` (single isomer, unassigned) [Compound 174B, (18′*S,*E)-3′,4′-difluoro-12′-hydroxy-18′-(o-tolyl)-6′H,18′H-spiro[cyclobutane-1,9′-[10,17]methanobenzo[b]pyrido[1,2-f][1]oxa[5,6,9]triazacyclotridecine]-11′,13′-dione], the EC50 in data set [1] amounted to 1.2 nM.

Consider `O=C1c2c(O)c(=O)ccn2N2CN1C/C=C\COc1c(ccc(F)c1F)[C@H]2c1ccccc1CF` (single isomer, unassigned) [Compound 175A, (18*R,Z)-3,4-difluoro-18-(2-(fluoromethyl)phenyl)-12-hydroxy-6,9-dihydro-18H-10,17-methanobenzo[b]pyrido[1,2-f][1]oxa[5,6,9]triazacyclotridecine-11,13-dione], for which the EC50 in data set [1] amounted to 2.3 nM.

On to `O=C1c2c(O)c(=O)ccn2N2CN1[C@@]1(/C=C/COc3cc(F)c(F)c4c3[C@H]2c2ccccc2SC4)CCOC1` (single isomer, unassigned) [Compound 176BA, (3*R, 17a′*S,*E)-24′,25′-difluoro-12′-hydroxy-2′,4,5,17a′-tetrahydro-2H,6′H-spiro[furan-3,9′-[3,4](epiprop[1]en[1]yl[3]ylidene)[10,17]methanobenzo[6,7]thiepino[4,5-c]pyrido[1,2-f][1]oxa[5,6,9]triazacyclotridecine]-11′,13′-dione], for which the EC50 in data set [1] worked out at 1.1 nM.

With `O=C1c2c(O)c(=O)ccn2N2CN1[C@]1(/C=C/COc3cc(F)c(F)c4c3[C@H]2c2ccccc2SC4)CCOC1` (single isomer, unassigned) [Compound 176BB, (3*S, 17a′*S,*E)-24′,25′-difluoro-12′-hydroxy-2′,4,5,17a′-tetrahydro-2H,6′H-spiro[furan-3,9′-[3,4](epiprop[1]en[1]yl[3]ylidene)[10,17]methanobenzo[6,7]thiepino[4,5-c]pyrido[1,2-f][1]oxa[5,6,9]triazacyclotridecine]-11′,13′-dione], the EC50 in data set [1] is 1.4 nM.

Regarding `COC[C@H]1/C=C/COc2cc(F)c(F)c3c2[C@H](c2ccccc2SC3)N2CN1C(=O)c1c(O)c(=O)ccn12` (single isomer, unassigned) [Compound 177AA, (9*R,17a*R,*E)-24,25-difluoro-12-hydroxy-9-(methoxymethyl)-2,6,9,17a-tetrahydro-3,4-(epiprop[1]en[1]yl[3]ylidene)-10,17-methanobenzo[6,7]thiepino[4,5-c]pyrido[1,2-f][1]oxa[5,6,9]triazacyclotridecine-11,13-dione], the EC50 in data set [1] came out at 15 nM.

As for `COC[C@@H]1/C=C/COc2cc(F)c(F)c3c2[C@H](c2ccccc2SC3)N2CN1C(=O)c1c(O)c(=O)ccn12` (single isomer, unassigned) [Compound 177AB, (9*S,17a*R,*E)-24,25-difluoro-12-hydroxy-9-(methoxymethyl)-2,6,9,17a-tetrahydro-3,4-(epiprop[1]en[1]yl[3]ylidene)-10,17-methanobenzo[6,7]thiepino[4,5-c]pyrido[1,2-f][1]oxa[5,6,9]triazacyclotridecine-11,13-dione], the EC50 in data set [1] turned out to be 0.67 nM.

Turning to `O=C1c2c(O)c(=O)ccn2N2CN1C1(/C=C/COc3cc(F)cc4c3[C@@H]2c2ccccc2SC4)CCC1` (single isomer, unassigned) [Compound 180A, (17a′*R,*E)-24′-fluoro-12′-hydroxy-2′,17a′-dihydro-6′H-spiro[cyclobutane-1,9′-[3,4](epiprop[1]en[1]yl[3]ylidene)[10,17]methanobenzo[6,7]thiepino[4,5-c]pyrido[1,2-f][1]oxa[5,6,9]triazacyclotridecine]-11′,13′-dione], the EC50 in data set [1] was determined as 29 nM.

On to `O=C1c2c(O)c(=O)ccn2N2CN1C1(/C=C/COc3cc(F)cc4c3[C@H]2c2ccccc2SC4)CCC1` (single isomer, unassigned) [Compound 180B, (17a′*S,*E)-24′-fluoro-12′-hydroxy-2′,17a′-dihydro-6′H-spiro[cyclobutane-1,9′-[3,4](epiprop[1]en[1]yl[3]ylidene)[10,17]methanobenzo[6,7]thiepino[4,5-c]pyrido[1,2-f][1]oxa[5,6,9]triazacyclotridecine]-11′,13′-dione], for which the EC50 in data set [1] stood at 0.36 nM.

Regarding `O=C1c2c(O)c(=O)ccn2N2CN1[C@H]1C[C@H]1CCOc1cccc3c1[C@H]2c1ccccc1SC3` (stereo in doubt) [Compound 166B, cis-(11a*RS,12a*RS,13S,20a*S)-15-hydroxy-6,11,11a,12,12a,20a-hexahydro-10H-7,8-(epiprop[1]en[1]yl[3]ylidene)-13,20-methanobenzo[6,7]thiepino[4,5-c]cyclopropa[j]pyrido[1,2-f][1]oxa[5,6,9]triazacyclotridecine-14,16-dione], the EC50 in data set [1] was 28 nM.

For the compound `CC[C@H]1/C=C/COc2cccc3c2[C@@H](c2ccccc2SC3)N2CN1C(=O)c1c(O)c(=O)ccn12` [Compound 92BA, (9S,17aS,E)-9-ethyl-12-hydroxy-2,6,9,17a-tetrahydro-3,4-(epiprop[1]en[1]yl[3]ylidene)-10,17-methanobenzo[6,7]thiepino[4,5-c]pyrido[1,2-f][1]oxa[5,6,9]triazacyclotridecine-11,13-dione], the EC50 in data set [1] amounted to 0.7 nM.
